Read-outs that look alike come from different tables or passages of the source.
Assays:
[1] = system: common oral care and wound care pathogens; experiment: In vitro broad spectrum comparison against common oral care and wound care pathogens, silver as positive control; type: cell-based; conditions: for broad spectrum antimicrobial activity compared with silver: in vitro, common oral care and wound care pathogens
Description: The MIC of the antimicrobials was from literature review as well as in vitro studies in our lab with the five major oral care and five major wound care pathogens. In the literature typically only one bacteria was tested, thus, it was difficult to ascertain whether the target was a broad spectrum antimicrobial. Oral care pathogens tested include: Fusobacterium nucleatum ss vincentii, Porphyromonas gingivalis, Prevotella intermedia, Aggregatibacter actinomycetemcomitans and Streptococcus mutans. Wound care pathogens included: Pseudomonas aeruginosa, Streptococcus pyogenes, Staphylococcus aureus, Enterococcus faecalis, and Proteus mirabilis. For the JMP® SAS analysis the antimicrobial scoring was based on the MIC in μg/ml using the following point scale: 5) 1-10 μg/ml, 4) 11-25 μg/ml, 3) 26-50 μg/ml, 2) 51-100 μg/ml, 1) >101, and ND for not determined.
In order to directly compare the top potential Ecofriendly antimicrobial candidates from the JMP SAS multivariate analysis described above, we examined how some of these compounds (aloesin, zinc pyrithione, cinnamon, lemongrass, manuka honey, peppermint, jojoba oil) performed against common oral care and wound care pathogens, using silver as a positive control. […] Zinc pyrithione is commonly used as an antibacterial and antifungal, is safe for human use, and is a common ingredient in dandruff shampoo.

[2] = system: oral care and wound care pathogens; conditions: background statement, organism not given; cited from earlier work
[3] = system: aquatic and terrestrial organisms; conditions: cited from earlier work
mice = conditions: cited from earlier work
[4] = system: aquatic and terrestrial organisms; experiment: Eco-friendliness from ECOTOX database records; conditions: point scale 5 to 1 from number of ECOTOX references
Description: Eco-friendliness ratings were based on the number of references from the ECOTOX database. The scoring used the following point scale: 5) no toxicity to aquatic and terrestrial organisms, 4) 1-10 result records, 3) 11-25, 2) 26-50, 1) >51, and ND for not determined. Commonly used compounds such as Triclosan and silver were given an unacceptable Ecofriendly score of 1.

[5] = US EPA ecotoxicology database, aquatic environment

CC(=O)Cc1cc(=O)c2c(C)cc(O)c([C@@H]3O[C@H](CO)[C@@H](O)[C@H](O)[C@H]3O)c2o1 [aloesin]
broad spectrum antimicrobial activity compared with silver [1]: inferior to silver

silver
microbial inhibitory concentration (MIC) [2]: 7.5 µg/mL | number of records/references in the ECOTOX database [3]: 5,266 | log reduction of most bacterial pathogens ([1]; planktonic bacterial and bacterial biofilms): 5 fold log reduction

Oc1cc(Cl)ccc1Oc1ccc(Cl)cc1Cl [Triclosan, 5-Chloro-2-(2,4-dichlorophenoxy)phenol]
microbial inhibitory concentration (MIC) [2]: 125 µg/mL | number of records/references in the ECOTOX database [3, 5]: 513 | LD50 (mice): 1.5 mg/day

zinc pyrithione
number of records/references in the ECOTOX database [3, 5]: 151 | Ecofriendly (ecotoxicology) score [4]: 1 (>51) | broad spectrum antimicrobial activity compared with silver [1]: better than silver

From patent publication US11547651B2, “Ecofriendly biofilm-disrupting antimicrobial formulations, their development, and their uses” (Alira Health Boston LLC, priority 2017, dated 2023)
